In this assay the test system is T1, 20S proteasome.
T1 construct: gene PSMB5; endogenous proteasome of COS-7 cells expressing OAT3; with Proteasome subunit beta type-6; Proteasome subunit beta type-7; Proteasome subunit beta type-1; Proteasome subunit beta type-2; Proteasome subunit beta type-3; Proteasome subunit beta type-4; Proteasome subunit alpha type-1; Proteasome subunit alpha type-2; Proteasome subunit alpha type-3; Proteasome subunit alpha type-4; Proteasome subunit alpha type-5; Proteasome subunit alpha type-6; Proteasome subunit alpha type-7
The assay is described as follows: […] proteasome assay kit (fluorescence) after treatment of intact cells. The settings on record: OAT3-expressing COS-7 cells treated 4 h; range over 10-100 µM; direct binding not shown. The class given is cell-based.

Each structure is given as a SMILES string.

For `CCN(CCO)CCCC(C)Nc1ccnc2cc(Cl)ccc12` (stereo not shown) [Hydroxychloroquine], the “% inhibition at 10-100 μM” value is given as 23–61%.

Source of the values: publication PMC10303059, “Chloroquine and Hydroxychloroquine, as Proteasome Inhibitors, Upregulate the Expression and Activity of Organic Anion Transporter 3” (Pharmaceutics, 2023).
